The test system of test [1] is HEK293. Nature of the test: cells. The following applies: Homo sapiens.
In test [2] the test system is HEK293. Nature of the test: cells. Conditions: Homo sapiens. This is another data set of the same source.
The target in a further test is T1, Coagulation factor XII (Homo sapiens, UniProt P00748).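 Note: activated factor XIIa alpha cleaving a fluorogenic AMC peptide substrate; inhibitor potency from loss of enzyme activity.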
T1 sequence (P00748 whole entry): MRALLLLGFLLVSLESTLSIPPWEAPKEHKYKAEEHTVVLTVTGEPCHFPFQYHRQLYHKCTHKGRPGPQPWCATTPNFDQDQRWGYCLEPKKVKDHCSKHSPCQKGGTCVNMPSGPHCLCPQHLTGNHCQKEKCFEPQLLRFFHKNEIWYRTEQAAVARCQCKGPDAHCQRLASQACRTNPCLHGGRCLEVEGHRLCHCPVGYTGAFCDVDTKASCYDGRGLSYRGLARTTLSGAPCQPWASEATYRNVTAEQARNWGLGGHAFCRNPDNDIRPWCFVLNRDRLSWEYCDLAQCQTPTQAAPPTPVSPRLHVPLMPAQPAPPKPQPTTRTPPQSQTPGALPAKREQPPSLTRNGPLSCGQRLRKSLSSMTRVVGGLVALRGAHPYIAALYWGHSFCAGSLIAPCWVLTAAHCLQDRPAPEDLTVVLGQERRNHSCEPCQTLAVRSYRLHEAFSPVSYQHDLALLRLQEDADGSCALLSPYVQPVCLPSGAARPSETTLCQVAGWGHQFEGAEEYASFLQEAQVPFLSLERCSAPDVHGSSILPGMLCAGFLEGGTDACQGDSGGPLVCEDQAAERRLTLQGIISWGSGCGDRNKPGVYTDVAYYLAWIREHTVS
The format is functional.

For the next test, the target named is SUMO-activating enzyme (Homo sapiens, UniProt Q9UBT2). Nature of the test: blockers of UBC9-mediated SUMO conjugation – biochemical, AlphaScreen, SUMOylation inhibitor project, confirmation (AID 2018). The format is functional. Background: Bead proximity is the source of the signal in Alpha formats.
The next test addresses Trypsin (Sus scrofa, UniProt P00761). Nature of the test: trypsin protease activity blockade – biochemical, quenched peptide fluorescence, cherry-pick, selectivity assay for Rce1 protease inhibitor project, dose response (AID 488789).
For test [3], the target named is Beta-2 adrenergic receptor (Homo sapiens, UniProt P07550). Nature of the test: ADRB2 activation measured by internalization – cell-based, FAP fluorogen, flow cytometry, cherry pick 1, dose response (AID 588763). The format is functional.
Test [4] in a line: Trypanosoma cruzi growth suppression in host cells – NIH3T3 host cells, beta-gal luminescence, confirmation (AID 2044).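 Note: intracellular parasites grown in NIH/3T3 mouse fibroblasts as host cells; luminescent beta-galactosidase reporter signal from transgenic T. cruzi replicating inside host cells; inhibitors lower the luminescence signal.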 It is filed as functional, cell-based.
Test [5] in a line: NIH3T3 cell viability loss – ATP luminescence, mouse fibroblasts, counter-screen, dose response (AID 2010).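 Note: cells exposed to compound for about 90 hours before reading.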 The format is functional, cell-based. Background: The purpose of a counterscreen is to sort out artefacts and off-target activity.
A short description of test [6]: A cytotoxicity screen of small molecule inhibitors of the PhoP region in Salmonella typhi identified in the primary screen. [Related pubchem assays: 1850, 1864, 1985 ]. The format is functional.
In test [7] the target is T2, Ubiquitin-conjugating enzyme E2 N (Homo sapiens, UniProt P61088).
T2 sequence (P61088 whole entry): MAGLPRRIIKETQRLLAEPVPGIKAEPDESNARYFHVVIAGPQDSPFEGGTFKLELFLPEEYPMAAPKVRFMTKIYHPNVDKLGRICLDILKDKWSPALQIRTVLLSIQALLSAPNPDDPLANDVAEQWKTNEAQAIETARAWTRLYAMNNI
The format is functional.

A further test has as its target T3, Bcl-2-related protein A1 (Mus musculus, UniProt Q07440).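 Note: confirmatory dose–response counterscreen on Bfl-1, used to check hits from a UBC13 polyubiquitin inhibitor campaign.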
T3 sequence (Q07440 whole entry): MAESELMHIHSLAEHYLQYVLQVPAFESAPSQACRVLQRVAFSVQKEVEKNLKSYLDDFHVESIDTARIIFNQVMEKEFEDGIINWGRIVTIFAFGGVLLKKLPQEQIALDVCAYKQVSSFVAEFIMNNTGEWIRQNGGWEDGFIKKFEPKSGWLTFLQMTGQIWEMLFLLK
The format is functional.

Another test deals with H9c2. Nature of the test: cells. It is filed as functional, cell-based. Conditions: Rattus norvegicus, H9c2, Myocardium.
The target of test [8] is T2, Ubiquitin-conjugating enzyme E2 N. It is filed as functional. This is another data set of the same source.
Test [9] can be described thus: viability of uninfected HEp-2 cells – cell-based, HTS, cytotoxicity control for RSV inhibitor project, dose response (AID 2410). The following applies: human respiratory syncytial virus. The format is functional.
The target of another test is Cytochrome P450 3A4 (Homo sapiens, UniProt P08684). The following applies: Potency.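 Note: confirmatory qHTS run detecting inhibitors and substrates of CYP3A4.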
A short description of test [10]: viability of PTEN-deleted HCT116 cells – cell-based, HCT116 PTEN knockout, dose response (AID 1047).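 Note: HCT116 colon tumor cells with PTEN knocked out; cells exposed to compound for 60 hours before readout; potency for loss of cell viability measured by luminescence.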 It is filed as functional.
A short description of test [11]: Luminescence Cell-Based Dose Retest to Confirm Inhibitors of Cancer Stem Cells. [Related pubchem assays (depositor defined):AID2717, AID2721]. It is filed as functional. The following applies: Homo sapiens.
Test [12] can be described thus: viability of HCT116 lacking mutant beta-catenin – cell-based, human colon tumor, dose response (AID 1045).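 Note: HCT116 colon tumor cells with beta catenin knocked out; cells exposed to compound for 60 hours.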 It is filed as functional.

Calls of active or inactive are those of the source.

By EC50 is commonly meant the concentration giving half of the maximal effect. Broadly, the IC50 is the concentration that inhibits the measured activity by half. A word on the AC50: it is the concentration giving half of the maximal activity seen. A word on the CC50: it is the concentration at which the toxic effect on the cells reaches its halfway point.

Sequence of Cytochrome P450 3A4 (P08684 whole entry): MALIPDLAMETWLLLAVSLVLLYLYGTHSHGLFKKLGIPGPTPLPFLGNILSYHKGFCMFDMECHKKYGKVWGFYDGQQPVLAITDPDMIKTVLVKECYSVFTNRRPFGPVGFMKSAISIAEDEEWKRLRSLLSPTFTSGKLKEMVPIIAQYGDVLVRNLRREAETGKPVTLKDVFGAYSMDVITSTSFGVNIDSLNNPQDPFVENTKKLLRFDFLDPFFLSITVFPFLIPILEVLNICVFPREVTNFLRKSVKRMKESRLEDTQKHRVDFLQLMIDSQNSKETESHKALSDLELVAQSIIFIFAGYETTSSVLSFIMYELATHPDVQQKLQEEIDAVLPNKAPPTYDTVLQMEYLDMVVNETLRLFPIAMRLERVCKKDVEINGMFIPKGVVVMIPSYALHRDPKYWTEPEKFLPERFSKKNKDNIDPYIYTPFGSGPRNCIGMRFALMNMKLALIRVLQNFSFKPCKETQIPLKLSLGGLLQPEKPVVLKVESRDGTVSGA
Sequence of SUMO-activating enzyme (Q9UBE0 whole entry): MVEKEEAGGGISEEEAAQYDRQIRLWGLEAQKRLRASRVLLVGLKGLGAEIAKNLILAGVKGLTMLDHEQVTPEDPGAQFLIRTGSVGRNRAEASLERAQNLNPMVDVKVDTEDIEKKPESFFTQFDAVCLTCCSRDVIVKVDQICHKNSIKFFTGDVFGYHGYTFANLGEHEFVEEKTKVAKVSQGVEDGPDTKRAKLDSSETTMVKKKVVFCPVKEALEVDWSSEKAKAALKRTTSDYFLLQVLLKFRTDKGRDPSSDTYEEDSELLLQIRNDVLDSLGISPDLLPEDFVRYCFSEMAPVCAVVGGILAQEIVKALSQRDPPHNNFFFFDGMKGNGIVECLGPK
Sequence of SUMO-activating enzyme (Q9UBT2 whole entry): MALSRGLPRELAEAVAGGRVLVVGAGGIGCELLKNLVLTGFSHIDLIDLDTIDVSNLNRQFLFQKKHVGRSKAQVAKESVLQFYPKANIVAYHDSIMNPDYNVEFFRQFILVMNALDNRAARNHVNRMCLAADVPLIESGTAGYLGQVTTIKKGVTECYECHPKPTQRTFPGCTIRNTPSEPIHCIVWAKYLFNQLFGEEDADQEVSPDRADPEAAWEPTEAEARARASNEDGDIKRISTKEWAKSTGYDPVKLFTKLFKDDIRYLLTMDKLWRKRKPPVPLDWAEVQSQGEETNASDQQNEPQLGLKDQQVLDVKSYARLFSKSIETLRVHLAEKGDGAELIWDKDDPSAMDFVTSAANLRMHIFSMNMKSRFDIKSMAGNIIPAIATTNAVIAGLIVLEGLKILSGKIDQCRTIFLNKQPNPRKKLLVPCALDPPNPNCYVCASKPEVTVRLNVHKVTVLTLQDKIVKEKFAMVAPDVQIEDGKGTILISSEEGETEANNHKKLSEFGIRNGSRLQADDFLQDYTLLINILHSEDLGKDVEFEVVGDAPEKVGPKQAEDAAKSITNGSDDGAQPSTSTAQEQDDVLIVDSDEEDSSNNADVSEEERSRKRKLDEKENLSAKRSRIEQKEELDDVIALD
Sequence of Beta-2 adrenergic receptor (P07550 whole entry): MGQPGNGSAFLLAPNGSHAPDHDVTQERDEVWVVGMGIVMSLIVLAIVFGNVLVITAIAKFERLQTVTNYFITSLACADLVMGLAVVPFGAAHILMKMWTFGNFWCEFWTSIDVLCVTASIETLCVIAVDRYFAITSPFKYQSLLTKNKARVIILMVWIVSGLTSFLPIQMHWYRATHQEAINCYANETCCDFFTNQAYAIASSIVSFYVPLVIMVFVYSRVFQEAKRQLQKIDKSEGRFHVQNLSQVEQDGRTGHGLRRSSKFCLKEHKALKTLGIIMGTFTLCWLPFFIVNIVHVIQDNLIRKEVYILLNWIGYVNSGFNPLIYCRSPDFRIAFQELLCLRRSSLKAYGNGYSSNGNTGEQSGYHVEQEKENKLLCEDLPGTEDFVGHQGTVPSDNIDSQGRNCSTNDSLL
Sequence of Trypsin (P00761 whole entry): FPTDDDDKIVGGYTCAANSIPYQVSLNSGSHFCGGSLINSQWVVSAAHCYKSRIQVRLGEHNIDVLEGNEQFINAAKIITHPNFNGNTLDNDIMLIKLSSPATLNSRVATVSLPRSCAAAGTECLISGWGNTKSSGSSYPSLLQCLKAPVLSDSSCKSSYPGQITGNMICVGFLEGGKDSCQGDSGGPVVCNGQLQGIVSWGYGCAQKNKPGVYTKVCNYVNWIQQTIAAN

Turning to `CCCNC(=O)c1ccccc1NC(=O)c1ccccc1N(C)S(=O)(=O)c1ccc(C)cc1`, the EC50 with HEK293 [1] and in the test on HEK293 [2] was > 59.6 µM (inactive) each time.

As for `Cc1ccc(N(CC(O)CN2C(=O)NC(C)(C)C2=O)S(=O)(=O)c2ccc(C)cc2)cc1` (stereo not drawn), the IC50 at Coagulation factor XII is > 50 µM (inactive).

As to `CCCCn1c(N)c(C(=O)OCCOC)c2nc3ccccc3nc21`, at SUMO-activating enzyme, the IC50 is 38 µM (active).

Consider `COc1ccc(CSc2ccc(-c3nc4ccccn4c3NCc3ccccc3)cc2OC)cc1`, for which, at Trypsin, the AC50 is 4.45 µM (active). For the same molecule, the EC50 in test [3] is 1.32 µM (active).

As to `COC(=O)Cc1c(C)nc2nc(-c3ccc(C)cc3)nn2c1O`, at Coagulation factor XII, the IC50 was > 50 µM (inactive).

With `COc1ccc(N(CCCN2C(=O)c3cccc4cccc(c34)C2=O)C(=O)c2cccnc2)cc1`, the EC50 is 0.666 µM (active) in test [4], > 60 µM (not active) in test [5] and > 50 µM (active) in test [6].

For `CCOC(=O)c1cccc(Nc2nc(-c3cccnc3)nc3ccccc23)c1`, the IC50 was 15.2 µM (active) in [7], > 20 µM (inactive) at Bcl-2-related protein A1, 24 µM (active) in the test on H9c2 and 14.5 µM (active) in test [8]. In addition, the 50% cytotoxic concentration (CC50) in [9] was 14 µM (active).

For `COc1ccnc2c1c(=O)n(Cc1ccc(Cl)cc1)c(=O)n2C`, the IC50 was 8.22 µM (active) in test [7], 4.03 µM (active) at Bcl-2-related protein A1 and 11.7 µM (active) in [8].

Consider `COC(=O)N1[C@H](C)C=C[C@]1(Cc1ccccc1)C(=O)NCc1ccccn1`, for which the AC50 on Cytochrome P450 3A4 is 3.98 µM (inconclusive).

Turning to `Cc1ccc2cc(CN(C(=O)c3cccs3)c3ccccc3)c(O)nc2c1`, the IC50 on Coagulation factor XII was > 50 µM (inactive).

`CC1CCN(S(=O)(=O)c2ccc3c(c2)C(=NO)c2cc(S(=O)(=O)N4CCC(C)CC4)ccc2-3)CC1`: the EC50 in [10] is 0.303 µM (active); in the test on HEK293 [1], > 59.6 µM (inactive); in [12], 0.265 µM (active); in the test on HEK293 [2], > 59.6 µM (inactive). Also, the AC50 in [11] is 0.584 µM (active).

For `C#CCOCCOCCOCCNc1nc(N2CCOCC2)nc(N2CCN(C(=O)[C@H](CCCCN)n3cc(CN)nn3)CC2)n1`, the IC50 in test [7] is > 20 µM (inactive); at Bcl-2-related protein A1, > 20 µM (inactive); in test [8], 15.3 µM (active).

Take `Cc1ccc(/C=N/NC(=O)c2cccc(S(=O)(=O)Nc3cccc(Cl)c3)c2)o1`: the IC50 at SUMO-activating enzyme is 82.1 µM (active).

Turning to `COc1cc(/C=N/NC(=O)CSCc2ccc([N+](=O)[O-])cc2)cc(OC)c1OC`, the IC50 in [7] is 7.06 µM (active); at Bcl-2-related protein A1, > 20 µM (inactive); in [8] it was 4.56 µM (active).

Regarding `C=C1CCC2C(CC2(C)C)C(=C)CC/C1=N/O` (stereo not drawn) [5-HYDROXYIMINOISOCARYOPHYLLENE], the AC50 at Cytochrome P450 3A4 was 31.6 µM (inconclusive).

Values taken from ChEMBL document CHEMBL1201862, “PubChem BioAssay data set” (2004).
